Consider 26 compounds from patent US8501729B2 (Albany Molecular Research, Inc., priority 2008, dated 2013).

Read-outs that look alike come from different tables or passages of the source.

One assay concerns the target human 5-HT3 receptor (Homo sapiens (Human), UniProt P46098). Description: radioligand binding assay (SPA format), [9-methyl-3H]BRL-43694 displacement. The method, then:
The relative affinity of the various compounds for the human 5-HT3 receptor was measured in a radioligand binding assay, using a scintillation proximity assay (SPA) format. Test compounds were dissolved to 10 mM in 100% DMSO, then serially diluted at 10× assay concentrations in 100% DMSO in 96-well polypropylene plates and further diluted to 4× assay concentrations with the assay buffer. […] Binding reactions were set up in wells of PicoPlates-96 (Perkin Elmer, Waltham, Mass.) by adding consecutively 50 μL, of each competing compound or buffer, SPA beads, the radioligand and 5-HT3 receptor membranes. After an overnight incubation at room temperature on a Nutator mixer, plates were centrifuged for 15 min at 1,500 rpm, followed by incubation in the dark for 30 min. Radioactivity was counted in the TopCount microplate counter (Perkin Elmer) for 5 min. […] Specific binding was determined by subtracting nonspecific binding from total binding. All experiments were performed in duplicate using ten concentrations of competing ligand, with ondansetron included as a control in every run. IC50 values were determined from specific binding data using XLfit4.1 curve fitting software from IDBS Ltd. The inhibition constant (Ki) was calculated from the Cheng Prusoff equation: (Ki=IC50/(1+(L/KD)), where L=concentration of radioligand in the assay, and KD=affinity of the radioligand for the receptor.

Assay [1] deals with recombinant human 5-HT3A receptors (Homo sapiens (Human), UniProt P46098). Description: agonist activity (Ca2+ fluorescence, Fluo-4) in HEK293 cells expressing the h5-HT3A receptor subunit. In kind it is cell-based. As to conditions: for activation at 10 µM: HEK293, read-out: HEK293 h5-HT3A % agonist response. The method, then: Human embryonic kidney (HEK293) cells expressing the h5-HT3A receptor subunit were seeded directly into poly-D-lysine coated, black-walled, clear bottomed, 96 well plates with approximately 1×10^5 cells per well. After 48 hrs incubation in DMEM growth media (100 μL), cells were washed twice (each 200 μL) in Hank's balanced salt solution (Invitrogen) before incubation (1 hr) with Fluo-4 acetoxymethyl (AM) ester (100 μL, 2.5 μM; Molecular Probes). Cells were washed twice (each 200 μL) in Hank's balanced salt solution and incubated for a further 30 mins in Hank's balanced salt solution (100 μL) prior to assay (25° C.). Alteration in [Ca^2+], was measured (relative fluorescence units [RFU]) using a Flexstation (excitation 488 nm and emission 515 nm; frequency of recording 3 sec). After recording for at least 80 sec, vehicle (Hank's balanced salt solution) or drug was automatically administered to the well (50 μL). Baseline was calculated from the 5 data points immediately prior to the first drug administration and the maximum response was that achieved over the 240 sec following drug administration. In all experiments the muscarinic receptor agonist carbachol (1 mM) was added 240 sec after the test drug administration.

The target of the next assay is 5-HT3 receptors (Mus musculus (Mouse), UniProt P23979). Put plainly: von Bezold-Jarisch model in vivo: inhibition of 5-HT induced bradycardia. Particulars: 60 min before 5-HT 0.1 mg/kg IV, highest oral dose tested. The method, then: This is a well characterized and widely used model to assess 5-HT3 receptor function in vivo (King et al., 5-Hydroxtryptamine-3 Receptor Antagonists, CRC Press, pp. 74-75 (1993), which is hereby incorporated by reference in its entirety). Certain compounds (Table 1) were evaluated for their ability to inhibit serotonin induced bradycardia in vivo in the mouse (Saxena et al., Arch. Int. Pharmacodyn., 277:235-252 (1985), which is hereby incorporated by reference in its entirety). Test substances and vehicle [2% Tween 80] were each administered orally to a group of 5 male CD-1(Crl.) mice each weighing 24±2 g. A dosing volume of 10 mL/kg was used. Sixty minutes later, 5-HT (0.1 mg/kg IV)-induced bradycardia was recorded in urethane (2250 mg/kg IP, given 10 minutes before 5-HT)-anesthetized animals.

[2] abbreviates: human 5-HT3 receptor membranes, 10 nM [3H]BRL-43694, Ki from Cheng Prusoff equation, read-out: h5-HT3A Ki.

Sequence of 5-HT3 receptors (P23979 24-489): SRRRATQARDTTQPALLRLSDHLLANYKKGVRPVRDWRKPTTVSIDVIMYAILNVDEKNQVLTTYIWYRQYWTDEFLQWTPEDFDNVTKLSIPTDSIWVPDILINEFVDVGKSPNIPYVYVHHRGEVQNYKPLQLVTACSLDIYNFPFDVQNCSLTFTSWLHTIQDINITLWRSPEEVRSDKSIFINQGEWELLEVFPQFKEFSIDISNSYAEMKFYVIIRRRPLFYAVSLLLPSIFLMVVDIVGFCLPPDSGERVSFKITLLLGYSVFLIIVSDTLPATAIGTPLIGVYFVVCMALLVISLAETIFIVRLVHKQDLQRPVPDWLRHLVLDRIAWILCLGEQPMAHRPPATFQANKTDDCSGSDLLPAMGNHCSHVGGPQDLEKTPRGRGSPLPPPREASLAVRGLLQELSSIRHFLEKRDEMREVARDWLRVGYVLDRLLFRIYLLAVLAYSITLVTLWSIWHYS
Sequence of recombinant human 5-HT3A receptors (P46098 24-478): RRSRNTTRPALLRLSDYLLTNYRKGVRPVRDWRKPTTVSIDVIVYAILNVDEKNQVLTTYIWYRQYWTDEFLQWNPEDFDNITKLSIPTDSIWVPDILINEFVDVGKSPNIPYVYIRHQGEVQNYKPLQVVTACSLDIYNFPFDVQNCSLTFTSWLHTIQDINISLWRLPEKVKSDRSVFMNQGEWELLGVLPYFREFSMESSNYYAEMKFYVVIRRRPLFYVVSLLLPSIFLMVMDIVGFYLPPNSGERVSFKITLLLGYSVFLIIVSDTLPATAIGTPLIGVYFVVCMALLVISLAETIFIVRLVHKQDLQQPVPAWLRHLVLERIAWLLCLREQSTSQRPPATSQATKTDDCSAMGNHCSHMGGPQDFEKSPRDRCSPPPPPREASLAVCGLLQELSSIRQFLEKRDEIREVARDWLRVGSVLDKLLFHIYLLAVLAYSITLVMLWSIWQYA
Sequence of human 5-HT3 receptor (P46098 24-478): as above

For the compound `COc1ccc(-n2nc3c4c(cccc42)C(=O)N([C@H]2CN4CCC2CC4)C3)cc1` [Example 20], the Ki at human 5-HT3 receptor was determined as 57 nM.

For `O=C1c2cccc3[nH]cc(c23)CCN1[C@@H]1CN2CCC1CC2` [Example 29, (S)-2-(Quinuclidin-3-yl)-2,3,4,6-tetrahydro-1H-azepino[5,4,3-cd]indol-1-one], the “HEK293 h5-HT3A % agonist response” value in assay [1] (at 10 μM, normalized to the response of 5-HT (100% at 3 μM), NR = no response) stood at 17%. Moreover, the “Inhibition of 5-HT Induced Bradycardia in Mice” value (“Inhibition … in Mice” for short) on 5-HT3 receptors (1 mg/kg oral) was 94% @ 1 mg/kg. In addition, the Ki at human 5-HT3 receptor (setting [2]) stood at 3 nM.

For `Cc1[nH]cnc1CN1CCc2c(c3ccccc3n2C)C1=O` [Alosetron, reference compound], the “Inhibition … in Mice” value on 5-HT3 receptors (1 mg/kg oral) is listed as 95% @ 1 mg/kg.

Consider `O=C1c2cccc3c2c(nn3Cc2ccccc2)CN1[C@H]1CN2CCC1CC2` [Example 17], for which, at human 5-HT3 receptor, the Ki amounted to 5 nM.

Regarding `O=C1c2cccc3[nH]cc(c23)CCN1[C@H]1CN2CCC1CC2` [Example 33, (R)-2-(Quinuclidin-3-yl)-2,3,4,6-tetrahydro-1H-azepino[5,4,3-cd]indol-1-one], in assay [1], the activation at 10 µM turned out to be 14%. On human 5-HT3 receptor (setting [2]), the Ki was 49 nM.

`O=C1c2cccc3c2c(cn3Cc2ccccc2)CCN1[C@H]1CN2CCC1CC2` [Example 35, (R)-6-benzyl-2-(quinuclidin-3-yl)-2,3,4,6-tetrahydro-1H-azepino[5,4,3-cd]indol-1-one]: at human 5-HT3 receptor (setting [2]), the Ki was 13 nM.

`O=C1c2cc(Br)cc3[nH]nc(c23)CN1[C@H]1CN2CCC1CC2` [Example 21] returned a Ki at human 5-HT3 receptor of 1 nM.

For the compound `CN1C2CCCC1CC(N1Cc3nn(C)c4cccc(c34)C1=O)C2` (stereo not drawn) [Example 22, 7-(Endo-N-(9-methyl-9-azabicyclo[3.3.1]nonan-3-yl))-2-methyl-7,8-dihydropyrazolo[3,4,5-de]isoquinolin-6(2H)-one], the Ki on human 5-HT3 receptor stood at 34 nM.

Consider `O=C1c2cccc3c2c(cn3Cc2ccccc2)CCN1[C@@H]1CN2CCC1CC2` [Example 32, (S)-6-benzyl-2-(quinuclidin-3-yl)-2,3,4,6-tetrahydro-1H-azepino[5,4,3-cd]indol-1-one], for which, at human 5-HT3 receptor (setting [2]), the Ki is 1 nM.

Take `CCn1nc2c3c(cccc31)C(=O)N([C@H]1CN3CCC1CC3)C2` [Example 14, (R)-2-Ethyl-7-(quinuclidin-3-yl)-7,8-dihydropyrazolo[3,4,5-de]isoquinolin-6(2H)-one]: the activation at 10 µM in assay [1] worked out at 4%.

`CC(C)n1nc2c3c(cccc31)C(=O)N([C@H]1CN3CCC1CC3)C2` [Example 15, (R)-2-Isopropyl-7-(quinuclidin-3-yl)-7,8-dihydropyrazolo[3,4,5-de]isoquinolin-6(2H)-one]: the activation at 10 µM in assay [1] was 3%.

Regarding `Cn1cc(C(=O)[C@@H]2CCc3nc[nH]c3C2)c2ccccc21` [Ramosetron, reference compound], the “Inhibition … in Mice” value at 5-HT3 receptors (0.1 mg/kg oral) is 77% @ 0.1 mg/kg. For the same compound, the inhibition constant Ki on human 5-HT3 receptor (setting [2]) came out at 0.06 nM.

`CN1C2CCC1CC(N1Cc3nn(C)c4cccc(c34)C1=O)C2` (stereo not drawn) [Example 38, Endo-2-methyl-7-(8-methyl-8-azabicyclo[3.2.1]octan-3-yl)-7,8-dihydropyrazolo[3,4,5-de]isoquinolin-6(2H)-one]: the Ki at human 5-HT3 receptor amounted to 59 nM.

In the case of `Cn1nc2c3c(cccc31)C(=O)N([C@H]1CN3CCC1CC3)C2` [Example 12, (R)-2-Methyl-7-(quinuclidin-3-yl)-7,8-dihydropyrazolo[3,4,5-de]isoquinolin-6(2H)-one], the activation at 10 µM in assay [1] is 6%. Further, affinity at human 5-HT3 receptor was put at a Ki of 2 nM.

Regarding `Cn1nc2c3c(cc(F)cc31)C(=O)N([C@H]1CN3CCC1CC3)C2` [Example 13], the activation at 10 µM in assay [1] came to 6%.

Consider `Cn1cc2c3c(cccc31)C(=O)N([C@@H]1CN3CCC1CC3)C2` [Example 4, (S)-5-Methyl-2-(quinuclidin-8-yl)-2,3-dihydropyrrolo[4,3,2-de]isoquinolin-1(5H)-one], for which, at human 5-HT3 receptor (setting [2]), the Ki was 1 nM.

With `O=C1c2cccc3[nH]nc(c23)CN1[C@H]1CN2CCC1CC2` [Example 16, (R)-7-(Quinuclidin-3-yl)-7,8-dihydropyrazolo[3,4,5-de]isoquinolin-6(2H)-one], the activation at 10 µM in assay [1] amounted to 35%.

As for `CN1C2CCCC1CC(N1CCc3cn(C)c4cccc(c34)C1=O)C2` (stereo not drawn) [Example 37, Endo-6-methyl-2-(9-methyl-9-azabicyclo[3.3.1]nonan-3-yl)-2,3,4,6-tetrahydro-1H-azepino[5,4,3-cd]indol-1-one], at human 5-HT3 receptor (setting [2]), the Ki was determined as 267 nM.

The compound `Cn1nc2c3c(cccc31)C(=O)N([C@@H]1CN3CCC1CC3)C2` [Example 6, (S)-2-Methyl-7-(quinuclidin-3-yl)-7,8-dihydropyrazolo[3,4,5-de]isoquinolin-6(2H)-one] registered a Ki at human 5-HT3 receptor of 1 nM.

As for `O=C1c2cccc3c2c(nn3-c2ccc(Cl)cc2)CN1[C@H]1CN2CCC1CC2` [Example 19], at human 5-HT3 receptor, the Ki was determined as 68 nM.

As for `Cn1cc2c3c(cccc31)C(=O)N([C@@H]1CN3CCC1CC3)CC2` [Example 31, (S)-6-methyl-2-(quinuclidin-3-yl)-2,3,4,6-tetrahydro-1H-azepino[5,4,3-cd]indol-1-one], in assay [1], the activation at 10 µM was found to be 5%. Besides, the Ki at human 5-HT3 receptor (setting [2]) worked out at 1 nM.

Regarding `CCn1nc2c3c(cccc31)C(=O)N([C@@H]1CN3CCC1CC3)C2` [Example 8, (S)-2-ethyl-7-(quinuclidin-3-yl)-7,8-dihydropyrazolo[3,4,5-de]isoquinolin-6(2H)-one], the Ki at human 5-HT3 receptor was 1 nM.

Regarding `Cn1cc2c3c(cccc31)C(=O)N([C@H]1CN3CCC1CC3)CC2` [Example 34, (R)-6-methyl-2-(quinuclidin-3-yl)-2,3,4,6-tetrahydro-1H-azepino[5,4,3-cd]indol-1-one], in assay [1], the activation at 10 µM was 13%. Moreover, the “Inhibition … in Mice” value on 5-HT3 receptors (3 mg/kg oral) is given as 88% @ 3 mg/kg. In addition, at human 5-HT3 receptor (setting [2]), the inhibitory constant (Ki) is 8 nM.

Consider `O=C1c2cccc3c2c(cn3-c2ccc(F)cc2)CCN1[C@H]1CN2CCC1CC2` [Example 36, (R)-6-(4-fluorophenyl)-2-(quinuclidin-3-yl)-2,3,4,6-tetrahydro-1H-azepino[5,4,3-cd]indol-1-one], for which, on human 5-HT3 receptor (10 μM, read-out: h5-HT3A inhibition @ 10 μM), the inhibition at 10 µM turned out to be 49%.

In the case of `CC(C)Cn1nc2c3c(cccc31)C(=O)N([C@@H]1CN3CCC1CC3)C2` [Example 9], the Ki on human 5-HT3 receptor worked out at 2 nM.

For the compound `CN1CC2CCCC1CC(N1Cc3cn(C)c4cccc(c34)C1=O)C2` (stereo not drawn) [Example 5, Endo-5-methyl-2-(9-methyl-9-azabicyclo[3.3.1]nonan-3-yl)-2,3-dihydropyrrolo[4,3,2-de]isoquinolin-1(5H)-one], the inhibitory constant (Ki) on human 5-HT3 receptor (setting [2]) was determined as 13 nM.

Broadly, the Ki is a dissociation constant, usually derived from enzyme kinetics or from competition with a known ligand. A word on the inhibition: it is the change of the read-out against control, counted positive when it falls.
